Laboratory results as given in patent US8574563B2 (Bristol-Myers Squibb Company, priority 2006, dated 2013).

Test system: HCV 1b-377-neo replicon cells
Assay: HCV replicon assay, HCV 1b-377-neo replicon cells (1b FRET)
Assay type: cell-based, Hepatitis C virus genotype 1b
Conditions: HCV 1b-377-neo replicon cells; HCV 1b genotype
How it was run: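 Compounds were tested in genotype 1b subgenomic replicon cells carrying a neomycin marker, alongside a matched replicon line with an NS5A Y2065H substitution that confers resistance to a reference NS5A inhibitor.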

| Structure (SMILES) | EC50 range against HCV 1b (Table 2, Range) |
| --- | --- |
| C[C@@H](C(=O)N1CCC[C@H]1c1ncc(-c2ccc(-c3ccc(-c4cnc([C@@H]5CCCN5C(=O)[C@H](C)N(C)C)[nH]4)cc3)cc2)[nH]1)N(C)C [Example M19, (2S,2′S)-1,1′-(4,4′-biphenyldiylbis(1H-imidazole-5,2-diyl(2S)-2,1-pyrrolidinediyl))bis(N,N-dimethyl-1-oxo-2-propanamine)] | >A |

Same assay, conditions: HCV 1b-377-neo replicon cells; HCV 1b genotype; read-out: EC50 range against HCV 1b (Table 2, Range)

| Structure (SMILES) | EC50 |
| --- | --- |
| COC(=O)N[C@@H](C(=O)N1CCC[C@H]1c1ncc(-c2ccc(-c3ccc(-c4cnc([C@@H]5CCCN5C(=O)Cc5cc(C)no5)[nH]4)cc3)cc2)[nH]1)c1ccccc1 [Example 84-74, methyl ((1R)-2-((2)S-2-(5-(4′-(2-((2S)-1-((3-methyl-5-isoxazolyl)acetyl)-2-pyrrolidinyl)-1H-imidazol-5-yl)-4-biphenylyl)-1H-imidazol-2-yl)-1-pyrrolidinyl)-2-oxo-1-phenylethyl)carbamate] | 0.001 to 0.999 nM |

Same assay, conditions: Hepatitis C virus, HCV 1b-377-neo replicon cells; HCV 1b genotype; read-out: EC50 range against HCV 1b (Table 2, Range)

| Structure (SMILES) | EC50 |
| --- | --- |
| COC(=O)N[C@@H]1CC[C@H](C(=O)N2CCC[C@H]2c2ncc(-c3ccc(-c4ccc(-c5cnc([C@@H]6CCCN6C(=O)[C@H]6CC[C@@H](NC(=O)OC)C6)[nH]5)cc4)cc3)[nH]2)C1 [cj-144, dimethyl (4,4′-biphenyldiylbis(1H-imidazole-5,2-diyl(2S)-2,1-pyrrolidinediylcarbonyl(1R,3S)-3,1-cyclopentanediyl))biscarbamate] | 0.001 to 0.999 nM |
| CCC(=O)N1CCC[C@H]1c1ncc(-c2ccc(-c3ccc(-c4cnc([C@@H]5CCCN5C(=O)CC)[nH]4)cc3)cc2)[nH]1 [Example 10, 5,5′-(4,4′-biphenyldiyl)bis(2-((2S)-1-propionyl-2-pyrrolidinyl)-1H-imidazole)] | 1 to 99 nM |
| COC(=O)N[C@@H](C(=O)N1CCC[C@H]1c1ncc(-c2ccc(-c3ccc(-c4cnc([C@@H]5CCCN5C(=O)Cc5cccc(Cl)c5)[nH]4)cc3)cc2)[nH]1)c1ccccc1 [Example 84-67, methyl ((1R)-2-((2S)-2-(5-(4′-(2-((2S)-1-((3-chlorophenyl)acetyl)-2-pyrrolidinyl)-1H-imidazol-5-yl)-4-biphenylyl)-1H-imidazol-2-yl)-1-pyrrolidinyl)-2-oxo-1-phenylethyl)carbamate] | 0.001 to 0.999 nM |
| CN(C)[C@@H](C(=O)N1CCC[C@H]1c1ncc(-c2cnc(-c3ncc(-c4cnc([C@@H]5CCCN5C(=O)[C@@H](c5ccccc5)N(C)C)[nH]4)cn3)nc2)[nH]1)c1ccccc1 [Example 153c-3, (1R,1′R)-2,2′-(2,2′-bipyrimidine-5,5′-diylbis(1H-imidazole-5,2-diyl(2S)-2,1-pyrrolidinediyl))bis(N,N-dimethyl-2-oxo-1-phenylethanamine)] | 1000 to 10000 nM |
| COC(=O)N[C@@H](C(=O)N1CCC[C@H]1c1ncc(-c2ccc(-c3ccc(-c4cnc([C@@H]5CCCN5C(=O)[C@H](NC(=O)OC)c5ccccc5Cl)[nH]4)cc3)cc2)[nH]1)c1ccccc1 [Example 107-41, methyl ((1R)-2-((2S)-2-(5-(4′-(2-((2S)-1-((2R)-2-(2-chlorophenyl)-2-((methoxy-carbonyl)amino)acetyl)-2-pyrrolidinyl)-1H-imidazol-5-yl)-4-biphenylyl)-1H-imidazol-2-yl)-1-pyrrolidinyl)-2-oxo-1-phenylethyl) carbamate] | 0.001 to 0.999 nM |
| O=C([C@@H](c1ccccc1)N1CCCC1)N1CCC[C@H]1c1ncc(-c2ccc(-c3ccc(-c4cnc([C@@H]5CCCN5C(=O)[C@@H](c5ccccc5)N5CCCC5)[nH]4)cc3C(F)(F)F)cc2)[nH]1 [Example 131] | 0.001 to 0.999 nM |
| COC(=O)N[C@@H](C(=O)N1CCC[C@H]1c1ncc(-c2ccc(-c3ccc(-c4cnc([C@@H]5CCCN5C(=O)c5cnc[nH]5)[nH]4)cc3)cc2)[nH]1)c1ccccc1 [Example M65, methyl ((1R)-2-((2S)-2-(5-(4′-(2-((2S)-1-(1H-imidazol-5-ylcarbonyl)-2-pyrrolidinyl)-1H-imidazol-5-yl)-4-biphenylyl)-1H-imidazol-2-yl)-1-pyrrolidinyl)-2-oxo-1-phenylethyl)carbamate] | 1 to 99 nM |
| COC(=O)N[C@@H]1CC[C@H](C(=O)N2CCC[C@H]2c2ncc(-c3ccc(-c4ccc(-c5cnc([C@@H]6CCCN6C(=O)[C@@H](NC(=O)OC)[C@@H](C)OC)[nH]5)cc4)cc3)[nH]2)C1 [cj-86, methyl ((1R,3S)-3-(((2S)-2-(5-(4′-(2-((2S)-1-((2S)-3-methoxy-2-((methoxycarbonyl)amino)butanoyl)-2-pyrrolidinyl)-1H-imidazol-5-yl)-4-biphenylyl)-1H-imidazol-2-yl)-1-pyrrolidinyl)carbonyl)cyclopentyl)carbamate] | 0.001 to 0.999 nM |
| CCS(=O)(=O)N[C@H](C(=O)N1CCC[C@H]1c1nc(-c2ccc(-c3ccc(-c4c[nH]c([C@@H]5CCCN5C(=O)[C@@H](NS(=O)(=O)CC)C(C)C)n4)cc3)cc2)c[nH]1)C(C)C [Example F67, N-((1S)-1-(((2S)-2-(4-(4′-(2-((2S)-1-((2S)-2-((ethylsulfonyl)amino)-3-methylbutanoyl)-2-pyrrolidinyl)-1H-imidazol-4-yl)-4-biphenylyl)-1H-imidazol-2-yl)-1-pyrrolidinyl)carbonyl)-2-methylpropyl)ethanesulfonamide] | 1 to 99 nM |
| CCN(CC)[C@@H](C(=O)N1CCC[C@H]1c1ncc(-c2ccc(-c3ccc(-c4cnc([C@@H]5CCCN5C(=O)[C@H](NC5=NCCN5)C(C)C)[nH]4)cc3)cc2)[nH]1)c1ccccc1 [cj-11p, N-((1R)-1-(((2S)-2-(5-(4′-(2-((2S)-1-((2R)-2-(diethylamino)-2-phenylacetyl)-2-pyrrolidinyl)-1H-imidazol-5-yl)-4-biphenylyl)-1H-imidazol-2-yl)-1-pyrrolidinyl)carbonyl)-2-methylpropyl)-4,5-dihydro-1H-imidazol-2-amine] | 0.001 to 0.999 nM |
| COC(=O)N[C@H](C(=O)N1CCC[C@H]1c1nc(-c2ccc(-c3ccc(-c4cnc([C@@H]5CCCN5C(=O)[C@@H](NC(=O)OC)C5CCOCC5)[nH]4)cc3)cc2)c[nH]1)C(C)C [Example F58, methyl ((1S)-1-(((2S)-2-(4-(4′-(2-((2S)-1-((2S)-2-((methoxycarbonyl)amino)-2-(tetrahydro-2H-pyran-4-yl)acetyl)-2-pyrrolidinyl)-1H-imidazol-5-yl)-4-biphenylyl)-1H-imidazol-2-yl)-1-pyrrolidinyl)carbonyl)-2-methylpropyl)carbamate] | 0.001 to 0.999 nM |
| COC(=O)N[C@@H](C(=O)N1CCC[C@H]1c1ncc(-c2ccc(-c3ccc(-c4cnc([C@@H]5CCCN5C(=O)CN5CCN(C)CC5)[nH]4)cc3)cc2)[nH]1)c1ccccc1 [Example 57, methyl ((1R)-2-((2S)-2-(5-(4′-(2-((2S)-1-((4-methyl-1-piperazinyl)acetyl)-2-pyrrolidinyl)-1H-imidazol-5-yl)-4-biphenylyl)-1H-imidazol-2-yl)-1-pyrrolidinyl)-2-oxo-1-phenylethyl)carbamate] | 0.001 to 0.999 nM |
| CCCOC(=O)N[C@@H](C)C(=O)N1CCC[C@H]1c1nc(-c2ccc(-c3ccc(-c4cnc([C@@H]5CCCN5C(=O)[C@H](C)NC(=O)OCCC)[nH]4)cc3)cc2)c[nH]1 [Example F20, propyl ((1S)-1-methyl-2-oxo-2-((2S)-2-(4-(4′-(2-((2S)-1-(N-(propoxycarbonyl)-L-alanyl)-2-pyrrolidinyl)-1H-imidazol-5-yl)-4-biphenylyl)-1H-imidazol-2-yl)-1-pyrrolidinyl)ethyl)carbamate] | 100 to 999 nM |
